# Patent US6716819B2, “Use of xylitol to reduce ionic strength and activate endogenous antimicrobials for prevention and treatment of infections” (University of Iowa Research Foundation, priority 2000, dated 2004)
# Assays:
# [1] = test system: coagulase-negative Staphylococcus
# Description: Effect of xylitol administration to nasal mucosa on coagulase-negative Staphylococcus.
# Subjects were over 18 years old. […] Twenty-one normal healthy subjects (10 male and 11 female, age 20 to 52 years) participated.
# The design was a double-blind, randomized, cross-over study. Subjects were randomized to one of two groups: xylitol followed by saline or saline followed by xylitol. A culture of both anterior nares was obtained on day zero. Then subjects sprayed each nostril with a prefilled syringe of solution 4 times per day for 4 days. On the morning of day 5, subjects did their final application at breakfast time, then a nasal swab was obtained 2 hours later. No treatment was administered for the next 7 days. Subjects then repeated the protocol with the opposite solution. The saline solution was 0.9% NaCl in water (Baxter Health Care Corp., Deerfield, Ill.). The xylitol solution was 5% xylitol (304 mM) in water. The solutions were nebulized using an Accuspray syringe (Becton Dickinson Pharmaceutical Systems, Franklin Lakes, N.J.), containing 250 μl of solution. The xylitol and saline syringes were identical. The mass medium diameter of particles was ˜60 μm. It was impossible to disguise the sweet taste of xylitol.
# Samples for cultures were obtained with sterile rayon swabs (Culturette Collection and Transport System, Becton Dickinson Microbiology Systems, Sparks, Md.). […] The plates were incubated at 37° C. for 24 hours and the colonies of coagulase-negative Staphylococcus colonies were identified and counted using a Cling-On Grid (Spiral Biotech, Bethesda, Md.). […]
# A randomized, double-blind, cross-over study was performed. The nasal mucosa was swabbed and the number of coagulase-negative Staphylococcus was determined by culture. […] After 4 days, the number of nasal coagulase-negative Staphylococcus was counted again. […]
# Analysis of variance for a cross-over design was applied on the change in bacterial count from pretreatment to post treatment. […] Thus, the comparison of xylitol vs. saline was evaluated from the data of both nostrils and both sequences.
# CF epithelia = assay: Liquid absorption by airway epithelia; assay type: cell-based, human; conditions: 60 μl saline/xylitol mixtures apical, 4 hours, increasing xylitol concentration
# Description: (§1) FIG. 2. Effect of apical xylitol on rate of liquid absorption by non-CF and CF epithelia. Sixty μl of saline solution, xylitol solution, or indicated mixtures of the two were applied to the apical surface. Four hours later the solution was removed to measure rate of liquid absorption. A short incubation period was chosen to avoid secondary changes in the epithelium due to the large volume of apical liquid. Data are mean±SEM; n=15 from 3 different experiments. Some SEM bars are hidden by symbols.
# (§2) Airway epithelial cells were isolated from tracheal and bronchial tissue. […] All epithelia were evaluated with scanning electron microscopy for the development of a ciliated apical surface.
# (§3) Liquid absorption was measured using methods similar to those previously described (Smith, J. J., P. H. Karp, and M. J. Welsh. 1994. Defective fluid transport by cystic fibrosis airway epithelia. J. Clin. Invest. 93:1307-1311). […] After incubation for 4 hours, apical solutions were collected under mineral oil and their volume measured as previously described (Zabner, J., J. J. Smith, P. H. Karp, J. H. Widdicombe, and M. J. Welsh. 1998. Loss of CFTR chloride channels alters salt absorption by cystic fibrosis airway epithelia in vitro. Mol. Cell. 2:397-403; Smith, J. J., P. H. Karp, and M. J. Welsh. 1994. Defective fluid transport by cystic fibrosis airway epithelia. J. Clin. Invest. 93:1307-1311). […]
# non-CF epithelia [2] = assay: Liquid absorption by airway epithelia; assay type: cell-based, human; conditions: 60 μl saline/xylitol mixtures apical, 4 hours, increasing xylitol concentration
# Description: as §1, §2, §3
# non-CF epithelia [3] = assay: ASL Cl- concentration and volume (isotope method); assay type: cell-based, human
# Description: FIGS. 3(A-B). The effect of apical xylitol on non-CF and CF ASL Cl^− concentration and volume. Five μl of isosmotic xylitol or saline solution were applied to the apical surface. Twenty-four hours later, ASL Cl^− concentration (A) and volume (B) were determined. Asterisk indicates a difference between the saline and the xylitol solutions, p<0.05. N=15 to 18 from 3 CF and 3 non-CF specimens.
# as §2
# The ASL Cl^− concentration was measured as previously described (Zabner, J., J. J. Smith, P. H. Karp, J. H. Widdicombe, and M. J. Welsh. 1998. Loss of CFTR chloride channels alters salt absorption by cystic fibrosis airway epithelia in vitro. Mol. Cell. 2:397-403). […] The ratio of ^36Cl to ^3H2O was determined by liquid scintillation. […] From these measurements, it was determined the ^3H2O activity per μl of water and the cpm of ^36Cl per mole of Cl^− in the basolateral medium. ASL volume was calculated from the ASL ^3H2O collected divided by the ratio of ^3H2O activity per μl of basolateral medium. Chloride content was calculated from the ASL ^36Cl collected divided by the ratio of ^36Cl per mole of Cl^− in the basolateral medium ASL Cl^− concentration was calculated from the Cl^− content divided by the volume of ASL. […]
compound,measurement,setting,value
OC[C@@H](O)[C@H](O)[C@@H](O)CO [xylitol],adverse effects reported by subjects,[1]; in vivo,none of the subjects tested reported adverse effects
same,median change in coagulase-negative Staphylococcus count,"[1]; normal subjects, nasal spray 4 times a day for 4 days, interquartile range in brackets",500 (interquartile range of 1152 to 120) cfu
same,average reduction of coagulase-negative Staphylococcus in treated nostrils,"[1]; normal subjects, nasal spray 250 μl per nostril 4 times a day for 4 days, p=0.05 vs saline",597±242 cfu
same,rate of liquid absorption,CF epithelia,reduced the rate of liquid absorption
same,rate of liquid absorption,non-CF epithelia [2],reduced the rate of liquid absorption
same,estimated ASL volume,non-CF epithelia [3]; 24 hours after 5 μl apical,increased
same,ASL Cl- concentration,non-CF epithelia [3]; 24 hours after 5 μl isosmotic xylitol solution apical,34.2 ± 4.3 mM
